Measurements reported in patent publication US9884821B2, “N1-cyclic amine-N5-substituted biguanide derivatives, methods of preparing the same and pharmaceutical composition comprising the same” (IMMUNOMET THERAPEUTICS INC., priority 2013, dated 2018).
Structures can show the parent of a compound that is named as a salt.

What was measured:
[1] = tested on: AMPK; experiment: AMPK activation effect (AMPK [pT172] ELISA) in MCF7 cells; type: cell-based, human; conditions: 24 hours; for AMPK activation effect (%) 5 μM / AMPK activation effect (%) 10 μM / AMPK activation effect (%) 50 μM: AMPKα Thr172 phosphorylation relative to untreated cells; for AC150: concentration at which AMPK activation reached 150%
Method: ELISA kit (Invitrogen, Catalog No. KH00651).
MCF7 cells were cultured in a DMEM medium supplemented with 10% fatal bovine serum (commercially available from Gibco Life Technologies (US)). Thereafter, the cultured MCF7 cells were put into a 6-well plate with approximately 5×10^5 cells per well, and cultured in an incubator supplied with 5% CO2. Culture media were treated with the derivatives synthesized in the Examples at concentrations of 5, 10 and 50 uM, and then cultured for 24 hours. […] Subsequently, the cells were lysed according to a method presented in the operation manual of the AMPK [pT172] ELISA kit, and 20 μg of a cell lysate was then yielded through protein assay. Thereafter, the AMPK activation effect was obtained by determining a degree of phosphorylation of a 172nd threonine residue (Thr172) of the AMPKα from the cell lysate according to the method presented in the operation manual of the AMPK [pT172] ELISA kit.

[2] = tested on: HCT116 cells; experiment: Effect of inhibiting cancer cell proliferation (MTT) in HCT116 cells; type: cell-based, human; conditions: for inhibition at 25 µM: read-out: Cell growth inhibition (%) at 25 μM; for inhibition at 100 µM: read-out: Cell growth inhibition (%) at 100 μM
Description: HCT116 cells derived from human colorectal cancer were used, and an effect of inhibiting cancer cell proliferation of the biguanide derivative was confirmed by measuring a concentration value (cell growth inhibition concentration, GIC50) at which cell growth was inhibited by 50% using a 3-(4,5-dimethylthiazol-2-yl)-2,5-diphenyltetrazolium bromide (MTT) reagent.
First, HCT116 cells (purchased from the KCLB) were put on a 96-well plate and cultured in a DMEM medium supplemented with 10% fatal bovine serum (commercially available from Gibco Life Technologies (US)) for 16 hours so that approximately 5,000 cells were counted in each well. Subsequently, to obtain the GIC50 value of each compound, the culture media were treated with 100 μM, 25 μM, 6.25 μM, 1.56 μM or 0.39 μM of the compound, and then cultured for 48 hours. In order to determine whether the cells survived after treatment with the compounds, MTT (commercially available from AMRESCO (US)) was added to the culture media which were then cultured for another 3 hours. Formed formazane crystals were dissolved using dimethyl sulfoxide (DMSO) and the absorbance of the resulting solution was measured at 560 nm. After the 48-hour culture, a ratio of a living cell count on a well plate treated with the compounds synthesized in the Examples to a cell count cultured on a well plate not treated with the compound was indicated as cell viability (%) according to the concentration of each treated compound. The cell viability (%) was used to plot a cell viability curve graph and calculate a concentration (GIC50) value of the compound at which the growth was inhibited by 50%, thereby confirming the inhibition effect of cancer cell proliferation.

[3] = Homo sapiens, HCT-116, 48 h, 100 μM

Compound | GI50 ([2]; Homo sapiens, HCT-116, 48 h) [µM] | AMPK activation effect (%) 5 μM [1] [%] | AMPK activation effect (%) 10 μM [1] [%] | AC150 [1] [µM] | inhibition at 25 µM ([2]; Homo sapiens, HCT-116, 48 h) [%] | inhibition at 100 µM [2, 3] [%] | AMPK activation effect (%) 50 μM [1] [%] | Cell growth inhibition (%) at 100 μM ([2]; 100 μM, 48 hours) [%] | GI50 ([2]; 48 hours) [µM]
CC1CCCN(C(=N)NC(=N)Nc2ccc(C(F)(F)F)cc2)C1.Cl (stereo not shown) [Example 81, N1-(3-methyl)piperidine-N5-(4-trifluoromethyl)phenyl biguanide hydrochloride] | 7.7 | 224 | 396 | 1.9 | 100 | – | – | – | –
CC1=CCN(C(=N)NC(=N)Nc2ccc(C(F)(F)F)cc2)C1.Cl [Example 16, N1-(3-methyl)-1,2-dihydropyrrole-N5-(4-trifluoromethyl)phenyl biguanide hydrochloride] | 10.8 | – | 398 | 1.7 | – | 99.3 | – | – | –
CC1CCCN(C(=N)NC(=N)Nc2cccc(OC(F)(F)F)c2)C1.Cl (stereo not shown) [Example 83, N1-(3-methyl)piperidine-N5-(3-trifluoromethoxy)phenyl biguanide hydrochloride] | 6.8 | 352 | 398 | 0.5 | 100 | – | – | – | –
Cc1ccc(NC(=N)NC(=N)N2CC=CCC2)cc1.Cl [Example 48, N1-1,2,3,6-tetrahydropyridine-N5-(4-methyl)phenyl biguanide hydrochloride] | 42.5 | – | 178 | 4.9 | – | 97.6 | 691 | – | –
Cl.N=C(NC(=N)N1CC=CCC1)Nc1ccc(Cl)cc1 [Example 35, N1-1,2,3,6-tetrahydropyridine-N5-(4-chloro)phenyl biguanide hydrochloride] | 18.4 | – | 314 | 2.4 | – | 99.1 | – | – | –
CC1CCCN(C(=N)NC(=N)Nc2ccc(Cl)c(C(F)(F)F)c2)C1.Cl (stereo not shown) [Example 69, N1-(3-methyl)piperidine-N5-(4-chloro, 3-trifluoromethyl)phenyl biguanide hydrochloride] | 1.9 | 307 | 650 | 1.2 | 100 | – | – | – | –
CCCNC(=N)NC(=N)N1CC=CCC1.Cl [Example 60, N1-1,2,3,6-tetrahydropyridine-N5-propyl biguanide hydrochloride] | 99.8 | – | 108 | 12.4 | – | 50.1 | 338 | – | –
N1-1,2-dihydropyrrole-N5-(4-methyl)phenyl biguanide hydrochloride [Example 50] | – | – | 317 | 1.4 | – | – | 440 | 46.0 | 117
CC1=CCN(C(=N)NC(=N)Nc2ccc(F)cc2)C1.Cl [Example 20, N1-(3-methyl)-1,2-dihydropyrrole-N5-(4-fluoro)phenyl biguanide hydrochloride] | 54.8 | – | 83 | 38.3 | – | 93.1 | 172 | – | –
Cl.N=C(NCc1ccc(Cl)c(C(F)(F)F)c1)NC(=N)N1CC=CCC1 [Example 58, N1-1,2,3,6-tetrahydropyridine-N5-(4-chloro, 3-trifluoromethyl)benzyl biguanide hydrochloride] | 7.9 | – | 500 | 1.8 | – | 98.4 | – | – | –

Second part, led by results:

GI50 ([2]; Homo sapiens, HCT-116, 48 h) [µM] | Compound | AMPK activation effect (%) 5 μM [1] [%] | AMPK activation effect (%) 10 μM [1] [%] | AC150 [1] [µM] | inhibition at 25 µM ([2]; Homo sapiens, HCT-116, 48 h) [%] | inhibition at 100 µM [2, 3] [%] | AMPK activation effect (%) 50 μM [1] [%] | Cell growth inhibition (%) at 100 μM ([2]; 100 μM, 48 hours) [%] | GI50 ([2]; 48 hours) [µM]
11.4 | CC1CCCC(C)N1C(=N)NC(=N)Nc1ccc(C(F)(F)F)cc1.Cl (stereo not shown) [Example 91, N1-(2,6-dimethyl)piperidine-N5-(4-trifluoromethyl)phenyl biguanide hydrochloride] | 108 | 214 | 5.6 | 100 | – | – | – | –
45.3 | CC1CCCN(C(=N)NC(=N)Nc2ccc(Br)cc2)C1.Cl (stereo not shown) [Example 68, N1-(3-methyl)piperidine-N5-(4-bromo)phenyl biguanide hydrochloride] | 52 | 136 | 13.7 | 29.4 | – | – | – | –
102 | Cc1cccc(NC(=N)NC(=N)N2CC=CC2)c1.Cl [Example 51, N1-1,2-dihydropyrrole-N5-(3-methyl)phenyl biguanide hydrochloride] | – | 241 | 3.1 | – | 48.7 | 409 | – | –
18.3 | CC1CCCN(C(=N)NC(=N)NCc2cccc(C(F)(F)F)c2)C1.Cl (stereo not shown) [Example 65, N1-(3-methyl)piperidine-N5-(3-trifluoromethyl)benzyl biguanide hydrochloride] | 147 | 274 | 2.8 | 66.7 | – | – | – | –
10.1 | CC1=CCN(C(=N)NC(=N)Nc2ccc(OC(F)(F)F)cc2)C1.Cl [Example 15, N1-(3-methyl)-1,2-dihydropyrrole-N5-(4-trifluoromethoxy)phenyl biguanide hydrochloride] | – | 554 | 1.6 | – | 99.2 | – | – | –
114 | COc1cccc(NC(=N)NC(=N)N2CC=CC2)c1.Cl [Example 43, N1-1,2-dihydropyrrole-N5-(3-methoxyl)phenyl biguanide hydrochloride] | – | 200 | 4.7 | – | 44.9 | 466 | – | –
7 | CC1CCCCN1C(=N)NC(=N)Nc1ccc(F)c(C(F)(F)F)c1.Cl (stereo not shown) [Example 78, N1-(2-methyl)piperidine-N5-(4-fluoro, 3-trifluoromethyl)phenyl biguanide hydrochloride] | 425 | 565 | 0.5 | 100 | – | – | – | –
10.8 | Cl.N=C(NC(=N)N1CC=CC1)Nc1ccc(C(F)(F)F)c(F)c1 [Example 47, N1-1,2-dihydropyrrole-N5-(3-fluoro, 4-trifluoromethyl)phenyl biguanide hydrochloride] | – | 758 | 1.0 | – | 100 | – | – | –
6.7 | CC1CCCCN1C(=N)NC(=N)Nc1cccc(OC(F)(F)F)c1.Cl (stereo not shown) [Example 73, N1-(2-methyl)piperidine-N5-(3-trifluoromethoxy)phenyl biguanide hydrochloride] | 215 | 384 | 2.0 | 100 | – | – | – | –
9.1 | CC1CCCC(C)N1C(=N)NC(=N)Nc1ccc(Br)cc1 (stereo not shown) [Example 97, N1-(2,6-dimethyl)piperidine-N5-(4-bromo)phenyl biguanide hydrochloride] | 143 | 233 | 4.2 | 100 | – | – | – | –
42.8 | Cl.N=C(NC(=N)N1CC=CC1)Nc1ccc(Cl)cc1 [Example 8, N1-1,2-dihydropyrrole-N5-(4-chloro)phenyl biguanide hydrochloride] | – | 139 | 8.3 | – | 99.1 | 515 | – | –
